According to patent US20250263395A1, “COMPOUNDS THAT MEDIATE PROTEIN DEGRADATION AND METHODS OF USE THEREOF” (Monte Rosa Therapeutics AG, priority 2022, published 2025):

Columns and labels:
CDK2 = CDK2 (Homo sapiens (Human), UniProt P24941); assay: CDK2 NanoBiT assay (HiBiT-tagged CDK2 degradation); format: cell-based; conditions: HEK293, HEK293 clonal line, C-terminal HiBiT tag on CDK2, LgBiT; 24 hours
Experimental: Example 145. NanoBiT Assay
A HEK293 clonal line with a CRISPR knock-in C-terminal HiBiT tag on CDK2 and stably expressing LgBiT protein was obtained from Promega (Madison, WI). Cells were plated at 5000 cells per well using Multiflo (BioTek) in 384-well white solid bottom plates (Corning, 3570BC) in 25 ul volume in DMEM media (DMEM, high glucose, HEPES, no phenol red (ThermoFisher Scientific, 21063029)) containing 10% FBS (Corning, 35-075-CV), 1% Peniciliin/Streptomycin ((ThermoFisher Scientific, 15140-122), and 1% Endurazine (Nano-Glo Endurazine Live Cell Substrate (Promega, N2571)). Cells were incubated for 16 hours at 37 C, 5% CO2. 75 nL of a compound at 30 μM were dosed into the plate using an Echo® 650 liquid handler (Labcyte). Cells were incubated at 37° C., 5% CO2 for 24 hours and then signal was read on a Pherastar FSX using “LUM plus” optic module.
Analysis was performed in Scinamic (Scinamic, Cambridge, MA). Luminescence response (R) was calculated by the formula: response=100*(S−N)/(P−N) where S is the signal of the well, N and P the mean negative and positive control values respectively of the same plate. The luminescence response was then fitted in Scinamic using a 3-parameter agonist logistic fit (hillslope=1, EC50>0, top/bottom unconstrained).

CRBN-DDB1 = CRBN-DDB1 (Homo sapiens (Human), UniProt Q96SW2); assay: CRBN HTRF assay (Cy5-Thalidomide probe displacement); format: binding; conditions: CRBN-DDB1 2.5 nM, Cy5-Thalidomide 100 nM, 30 min; Ki from geometric mean IC50 by Cheng-Prusoff
Experimental: Compound activity was monitored in a Homogenous Time-Resolved Fluorescence (HTRF) assay using 1-[5-({2-[2-(2-{[2-(2,6-dioxopiperidin-3-yl)-1,3-dioxo-2,3-dihydro-1H-isoindol-4-yl]oxy}acetamido)ethoxy]ethyl}carbamoyl)pentyl]-3,3-dimethyl-2-[(1E,3E)-5-[(2E)-1,3,3-trimethyl-5-sulfo-2,3-dihydro-1H-indol-2-ylidene]penta-1,3-dien-1-yl]-3H-indol-1-ium-5-sulfonate as a fluorescent probe. Biochemical assays were conducted in Greiner white 384 well HiBase plates (Cat. No 784075-25) in 10 μL total volume. A one pot detection solution of CRBN-DDB1 (2.5 nM), Anti-His Terbium Cryptate Gold (1×, PerkinElmer Cat. #: 61HI2TLB), and Cy5-Thalidomide (100 nM, Tenova Cat.: T52461) was prepared in 20 mM HEPES, 20 mM NaCl, 0.2 mM TCEP, 0.2 mM EDTA, and 0.005% Tween20 was dispensed to each assay plate. Compounds were stored in dry, ambient temperatures at 10 mM. A 10-point, 1:3 dilution series was prepared from 10 mM stock concentrations in Echo-compatible LDV plates. 10 nL of each compound dilution series was dispensed into assays wells using an Echo 650 (Labcyte inc. USA). 10 nL of 10 mM Lenalidomide was transferred into the active-control wells for the assay and 10 nL of DMSO was transferred into the neutral-control wells. The assay was then allowed to incubate for 30 min at ambient temperature after transferring compound. Plate measurements were taken on a Pherastar FSX (BMG Labtech, Germany) using the HTRF Red filter (Ex. 337 nm, em1: 620 nm, em2: 665 nm) (Flashes: 50, Integration time: 60-400 us, Z-height: 10 mm, Ratio-multiplier: 10,000). The HTRF signal was then subsequently normalized to the neutral and active controls. Analysis and IC50 values were derived using KNIME analytics (KNIME Zurich) transformation and fitting within Collaborative Drug Discovery (Collaborative Drug Discovery USA). Ki was derived from the geometric mean of the IC50 values using the Cheng-Prustoff transformation.

Chain of CRBN-DDB1 (Q96SW2 whole entry): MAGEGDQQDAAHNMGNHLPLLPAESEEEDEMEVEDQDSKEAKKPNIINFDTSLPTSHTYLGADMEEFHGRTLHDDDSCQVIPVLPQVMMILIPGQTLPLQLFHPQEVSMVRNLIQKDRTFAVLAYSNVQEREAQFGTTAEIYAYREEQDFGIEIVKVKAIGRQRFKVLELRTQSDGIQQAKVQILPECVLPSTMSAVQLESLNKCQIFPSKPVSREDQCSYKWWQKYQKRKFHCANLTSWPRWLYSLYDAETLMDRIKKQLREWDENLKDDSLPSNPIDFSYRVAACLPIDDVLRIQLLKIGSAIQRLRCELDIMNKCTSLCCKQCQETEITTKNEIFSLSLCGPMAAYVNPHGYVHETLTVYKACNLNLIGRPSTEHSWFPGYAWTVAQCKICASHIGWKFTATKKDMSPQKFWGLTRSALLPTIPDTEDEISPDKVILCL
Chain of CRBN-DDB1 (Q16531 whole entry partner): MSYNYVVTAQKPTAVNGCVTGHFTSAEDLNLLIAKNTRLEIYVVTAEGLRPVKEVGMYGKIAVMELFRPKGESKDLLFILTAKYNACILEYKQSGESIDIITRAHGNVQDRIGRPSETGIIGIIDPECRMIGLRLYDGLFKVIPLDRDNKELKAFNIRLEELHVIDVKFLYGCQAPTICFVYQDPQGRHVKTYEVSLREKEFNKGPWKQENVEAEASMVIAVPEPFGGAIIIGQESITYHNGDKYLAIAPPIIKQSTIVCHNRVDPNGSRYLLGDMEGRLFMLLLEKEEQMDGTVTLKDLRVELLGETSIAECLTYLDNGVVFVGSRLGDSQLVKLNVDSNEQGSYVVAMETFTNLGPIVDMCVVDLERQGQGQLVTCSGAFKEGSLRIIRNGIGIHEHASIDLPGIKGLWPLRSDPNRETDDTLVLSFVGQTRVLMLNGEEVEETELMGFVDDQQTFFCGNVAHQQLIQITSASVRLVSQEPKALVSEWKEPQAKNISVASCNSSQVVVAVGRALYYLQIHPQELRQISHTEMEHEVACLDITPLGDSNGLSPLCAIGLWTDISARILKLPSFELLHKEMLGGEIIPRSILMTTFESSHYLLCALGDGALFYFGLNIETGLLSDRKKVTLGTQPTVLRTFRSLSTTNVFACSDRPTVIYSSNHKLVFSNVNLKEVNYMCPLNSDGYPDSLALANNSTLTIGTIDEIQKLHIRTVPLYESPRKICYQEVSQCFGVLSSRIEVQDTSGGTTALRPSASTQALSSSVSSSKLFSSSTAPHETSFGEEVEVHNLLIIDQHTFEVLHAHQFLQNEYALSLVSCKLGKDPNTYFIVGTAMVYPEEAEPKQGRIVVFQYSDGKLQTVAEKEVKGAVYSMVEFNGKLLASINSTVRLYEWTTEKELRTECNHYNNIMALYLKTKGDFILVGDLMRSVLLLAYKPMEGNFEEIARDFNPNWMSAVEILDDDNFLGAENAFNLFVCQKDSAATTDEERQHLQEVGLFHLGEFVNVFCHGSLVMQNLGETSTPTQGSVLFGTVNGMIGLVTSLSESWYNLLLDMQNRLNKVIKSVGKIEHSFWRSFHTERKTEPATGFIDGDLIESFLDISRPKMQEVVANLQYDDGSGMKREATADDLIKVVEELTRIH

`Cc1ccc(N(C)C(=O)C23CC(OC(=O)NC4CN(c5cc(F)c(C6CCC(=O)NC6=O)c(F)c5)C4)(C2)C3)cc1` (stereo not drawn) [Compound 133, 3-(methyl (p-tolyl)carbamoyl)bicyclo[1.1.1]pentan-1-yl (1-(4-(2,6-dioxopiperidin-3-yl)-3,5-difluorophenyl)azetidin-3-yl)carbamate] gave a Dmax (CDK2) of 50 to 80% and a Ki (CRBN-DDB1) of at most 100 nM.
In the case of `CC(C)(C)O[C@H]1C[C@@H](OC(=O)NC2CN(c3cc(F)c(C4CCC(=O)NC4=O)c(F)c3)C2)C1` (stereo partly drawn) [Compound 46, (1s, 3s)-3-(tert-butoxy)cyclobutyl (1-(4-(2,6-dioxopiperidin-3-yl)-3,5-difluorophenyl)azetidin-3-yl)carbamate], the Dmax (CDK2) is reported as 50 to 80% and the Ki (CRBN-DDB1) is reported as at most 100 nM.
`COc1c(N2CC(C)(Nc3nnc(C4CC5(CCC5)C4)o3)C2)ccc(C2CCC(=O)NC2=O)c1F` (stereo not drawn) [Compound 121, 3-(2-fluoro-3-methoxy-4-(3-methyl-3-((5-(spiro[3.3]heptan-2-yl)-1,3,4-oxadiazol-2-yl)amino)azetidin-1-yl)phenyl)piperidine-2,6-dione] was tested, and the Dmax (CDK2) was 10 to 50% and the Ki (CRBN-DDB1) was at most 100 nM.
`CN(C(=O)N1CC[C@@H](OC(=O)NC2CN(c3cc(F)c(C4CCC(=O)NC4=O)c(F)c3)C2)C1)C1CC1` (stereo partly drawn) [Compound 25, (R)-1-(cyclopropyl(methyl)carbamoyl)pyrrolidin-3-yl (1-(4-(2,6-dioxopiperidin-3-yl)-3,5-difluorophenyl)azetidin-3-yl)carbamate] gave a Dmax (CDK2) of 10 to 50% and a Ki (CRBN-DDB1) of at most 100 nM.
Molecule `Cc1ccc(N(C)C(=O)N2CC(OC(=O)NC3CN(c4cc(F)c(C5CCC(=O)NC5=O)c(F)c4)C3)C2)nc1` (stereo not drawn) [Compound 110, 1-(methyl (5-methylpyridin-2-yl)carbamoyl) azetidin-3-yl (1-(4-(2,6-dioxopiperidin-3-yl)-3,5-difluorophenyl)azetidin-3-yl) carbamate] has a Dmax (CDK2) of 10 to 50% and a Ki (CRBN-DDB1) of at most 100 nM.
`CC1(Nc2nnc(C3CC4(CCC4)C3)o2)CN(c2cc(F)c(C3CCC(=O)NC3=O)c(F)c2)C1` (stereo not drawn) [Compound 101, 3-(2,6-difluoro-4-(3-methyl-3-((5-(spiro[3.3]heptan-2-yl)-1,3,4-oxadiazol-2-yl)amino)azetidin-1-yl)phenyl)piperidine-2,6-dione] gave a Dmax (CDK2) of 50 to 80% and a Ki (CRBN-DDB1) of at most 100 nM.
With `O=C1CCC(c2c(F)cc(N3C[C@H](Nc4nnc(C5CC6(CCC6)C5)o4)CC3=O)cc2F)C(=O)N1` (stereo partly drawn) [Compound 92, 3-(2,6-difluoro-4-((R)-2-oxo-4-((5-(spiro[3.3]heptan-2-yl)-1,3,4-oxadiazol-2-yl)amino)pyrrolidin-1-yl)phenyl)piperidine-2,6-dione] the Dmax (CDK2) was 50 to 80% and the Ki (CRBN-DDB1) was at most 100 nM.
With `O=C1CCC(c2c(F)cc(N3CC(NC(=O)OCC#CC4CC4)C3)cc2F)C(=O)N1` (stereo not drawn) [Compound 84, 3-cyclopropylprop-2-yn-1-yl (1-(4-(2,6-dioxopiperidin-3-yl)-3,5-difluorophenyl)azetidin-3-yl)carbamate] the Dmax (CDK2) was 10 to 50% and the Ki (CRBN-DDB1) was at most 100 nM.
With `C[C@@H]1[C@@H](Nc2nnc(-c3ccc(OC(F)(F)F)cc3)o2)CN1c1cc(F)c(C2CCC(=O)NC2=O)c(F)c1` (stereo partly drawn) [Compound 144, 3-(2,6-difluoro-4-((2R,3S)-2-methyl-3-((5-(4-(trifluoromethoxy)phenyl)-1,3,4-oxadiazol-2-yl)amino)azetidin-1-yl)phenyl)piperidine-2,6-dione] the Dmax (CDK2) was 50 to 80% and the Ki (CRBN-DDB1) was at most 100 nM.
With `CN(CC1CC1)C(=O)C12CC(OC(=O)NC3CN(c4cc(F)c(C5CCC(=O)NC5=O)c(F)c4)C3)(C1)C2` (stereo not drawn) [Compound 82, 3-((cyclopropylmethyl)(methyl)carbamoyl)bicyclo[1.1.1]pentan-1-yl (1-(4-(2,6-dioxopiperidin-3-yl)-3,5-difluorophenyl)azetidin-3-yl)carbamate] the Dmax (CDK2) was over 80% and the Ki (CRBN-DDB1) was at most 100 nM.
`CN(C(=O)C12CC(OC(=O)NC3CN(c4cc(F)c(C5CCC(=O)NC5=O)c(F)c4)C3)(C1)C2)c1cccc(C#N)c1` (stereo not drawn) [Compound 123, 3-((3-cyanophenyl)(methyl)carbamoyl)bicyclo[1.1.1]pentan-1-yl (1-(4-(2,6-dioxopiperidin-3-yl)-3,5-difluorophenyl)azetidin-3-yl)carbamate] showed a Dmax (CDK2) of 10 to 50% and a Ki (CRBN-DDB1) of at most 100 nM.
For `O=C1CCC(c2c(F)cc(N3CC(NC(=O)OC4CN(C(=O)N5Cc6ccccc6C5)C4)C3)cc2F)C(=O)N1` (stereo not drawn) [Compound 5, 1-(isoindoline-2-carbonyl)azetidin-3-yl (1-(4-(2,6-dioxopiperidin-3-yl)-3,5-difluorophenyl)azetidin-3-yl)carbamate], the Dmax (CDK2) was 50 to 80% and the Ki (CRBN-DDB1) was at most 100 nM.
Work on `O=C1CCC(c2c(F)cc(N3CC[C@H](NC(=O)OCC4CC5(CCC5)C4)C3)cc2F)C(=O)N1` (stereo partly drawn) [Compound 61, spiro[3.3]heptan-2-ylmethyl ((3S)-1-(4-(2,6-dioxopiperidin-3-yl)-3,5-difluorophenyl)pyrrolidin-3-yl)carbamate] yielded a Dmax (CDK2) of over 80% and a Ki (CRBN-DDB1) of 100 to 1000 nM.
`N#Cc1ccc(-c2nnc(NC3CN(c4cc(F)c(C5CCC(=O)NC5=O)c(F)c4)C3)o2)cc1` (stereo not drawn) [Compound 95, 4-(5-((1-(4-(2,6-dioxopiperidin-3-yl)-3,5-difluorophenyl)azetidin-3-yl)amino)-1,3,4-oxadiazol-2-yl)benzonitrile] showed a Dmax (CDK2) of over 80% and a Ki (CRBN-DDB1) of at most 100 nM.
`Cc1cccc(N(C)C(=O)N2CC(OC(=O)NC3CN(c4cc(F)c(C5CCC(=O)NC5=O)c(F)c4)C3)C2)c1` (stereo not drawn) [Compound 10, 1-(methyl(m-tolyl)carbamoyl)azetidin-3-yl (1-(4-(2,6-dioxopiperidin-3-yl)-3,5-difluorophenyl)azetidin-3-yl)carbamate] showed a Dmax (CDK2) of over 80%.
`Cc1ccc(C)c(N(C)C(=O)C23CC(OC(=O)NC4CN(c5cc(F)c(C6CCC(=O)NC6=O)c(F)c5)C4)(C2)C3)c1` (stereo not drawn) [Compound 111] gave a Dmax (CDK2) of 50 to 80%.
For `O=C1CCC(c2c(F)cc(N3CC(NC(=O)OCC4CC5(CCC5)C4)C3)cc2F)C(=O)N1` (stereo not drawn) [Compound 1, spiro[3.3]heptan-2-ylmethyl (1-(4-(2,6-dioxopiperidin-3-yl)-3,5-difluorophenyl)azetidin-3-yl)carbamate], the Dmax (CDK2) was over 80%.
With `[2H]C([2H])([2H])N(C(=O)N1CC(OC(=O)NC2CN(c3cc(F)c(C4CCC(=O)NC4=O)c(F)c3)C2)C1)c1ccc(Cl)cc1` (stereo not drawn) [Compound 119, 1-((4-chlorophenyl)(methyl-d3)carbamoyl)azetidin-3-yl (1-(4-(2,6-dioxopiperidin-3-yl)-3,5-difluorophenyl)azetidin-3-yl)carbamate] the Ki (CRBN-DDB1) was at most 100 nM.
Work on `Cc1ccnc(N2CC(OC(=O)NC3CN(c4cc(F)c(C5CCC(=O)NC5=O)c(F)c4)C3)C2)c1` (stereo not drawn) [Compound 6, 1-(4-methylpyridin-2-yl)azetidin-3-yl (1-(4-(2,6-dioxopiperidin-3-yl)-3,5-difluorophenyl)azetidin-3-yl)carbamate] yielded a Dmax (CDK2) of 50 to 80%.
For `N#Cc1c(N2CC(NC(=O)OCC3CC4(CCC4)C3)C2)ccc(C2CCC(=O)NC2=O)c1Cl` (stereo not drawn) [Compound 85, spiro[3.3]heptan-2-ylmethyl (1-(3-chloro-2-cyano-4-(2,6-dioxopiperidin-3-yl)phenyl)azetidin-3-yl)carbamate], the Dmax (CDK2) was 50 to 80%.
Molecule `O=C1CCC(c2c(F)cc(N3CC(NC(=O)OC4CN(C(=O)N5CCCC5)C4)C3)cc2F)C(=O)N1` (stereo not drawn) [Compound 32] has a Dmax (CDK2) of 50 to 80%.
`[2H]C([2H])([2H])N(C(=O)N1CC(OC(=O)NC2CN(c3cc(F)c(C4CCC(=O)NC4=O)c(F)c3)C2)C1)c1ccc(C)cc1` (stereo not drawn) [Compound 118, 1-((methyl-d3)(p-tolyl)carbamoyl)azetidin-3-yl (1-(4-(2,6-dioxopiperidin-3-yl)-3,5-difluorophenyl)azetidin-3-yl)carbamate] showed a Ki (CRBN-DDB1) of at most 100 nM.
